Assay results taken from the NIST ThermoML archive (doi:10.1016/j.jct.2011.01.016).

Tests used:
[1] = xn = mol fraction of the nth substance listed; conditions: 100 kPa, Liquid; for viscosity: Concentric cylinders viscometry; for mass density: Vibrating tube method
[2] = 101.33 kPa, Liquid; for viscosity: Concentric cylinders viscometry; for mass density: Vibrating tube method

CCCCCCCCCCCCCC[P+](CCCCCC)(CCCCCC)CCCCCC.[Cl-] [trihexyl(tetradecyl)phosphonium chloride] + O
[1], x2 = 0.818
Conditions	mass density [kg/m3]	viscosity [mPa·s]
298.15 K	901.6	134.72
303.15 K	898.3	103.12
308.15 K	895	80.2
313.15 K	891.7	63.3
318.15 K	888.4	50.65
323.15 K	885.1	41.05
328.15 K	881.8	33.64
333.15 K	878.5	27.88
338.15 K	875.2	23.33
343.15 K	871.9	19.71
348.15 K	868.6	16.79
353.15 K	865.3	14.4
358.15 K	862	12.44
363.15 K	858.6	10.81

CCCCCCCCCC(=O)[O-].CCCCCCCCCCCCCC[P+](CCCCCC)(CCCCCC)CCCCCC [trihexyltetradecylphosphonium decanoate]
[2]
Conditions	mass density [kg/m3]	viscosity [mPa·s]
278.15 K	893.2	1915.7
283.15 K	890	1292.9
288.15 K	886.9	902.16
293.15 K	883.7	644.41
298.15 K	880.6	471.51
303.15 K	877.5	352.09
308.15 K	874.4	267.73
313.15 K	871.3	207.27
318.15 K	868.3	163
323.15 K	865.3	130.01
328.15 K	862.2	104.89
333.15 K	859.2	85.75
338.15 K	856.2	70.93
343.15 K	853.2	59.27
348.15 K	850.2	49.99
353.15 K	847.3	42.54
358.15 K	844.3	36.46
363.15 K	841.3	31.47

CCCCCCCCCC(=O)[O-].CCCCCCCCCCCCCC[P+](CCCCCC)(CCCCCC)CCCCCC [trihexyltetradecylphosphonium decanoate] + O
[1], x2 = 0.872
Conditions	mass density [kg/m3]	viscosity [mPa·s]
298.15 K	901.2	90.95
303.15 K	897.8	70.57
308.15 K	894.5	55.66
313.15 K	891.1	44.65
318.15 K	887.7	36.26
323.15 K	884.3	29.77
328.15 K	880.9	24.65
333.15 K	877.5	20.59
338.15 K	874	17.35
343.15 K	870.6	14.72
348.15 K	867.1	12.57
353.15 K	863.7	10.8
358.15 K	860.2	9.345
363.15 K	856.8	8.114

CCCCCCCCCCCCCC[P+](CCCCCC)(CCCCCC)CCCCCC.CS(=O)(=O)[O-] [trihexyltetradecylphosphonium methanesulfonate]
[2]
Conditions	mass density [kg/m3]	viscosity [mPa·s]
278.15 K	940.5	7526.5
283.15 K	937.4	4689.7
288.15 K	934.3	3040.4
293.15 K	931.2	2022.2
298.15 K	928.1	1379.4
303.15 K	925.1	962.83
308.15 K	922	686.13
313.15 K	918.9	498.53
318.15 K	915.9	369.02
323.15 K	912.9	277.77
328.15 K	909.9	212.37
333.15 K	907	164.79
338.15 K	904.1	129.63
343.15 K	901.2	103.34
348.15 K	898.3	83.37
353.15 K	895.3	68.01
358.15 K	892.4	56.06
363.15 K	889.4	46.65

CCCCCCCCCCCCCC[P+](CCCCCC)(CCCCCC)CCCCCC.CS(=O)(=O)[O-] [trihexyltetradecylphosphonium methanesulfonate] + O
[1], x2 = 0.825
Conditions	mass density [kg/m3]	viscosity [mPa·s]
298.15 K	935.1	126.55
303.15 K	931.8	97.43
308.15 K	928.4	76.18
313.15 K	925.1	60.41
318.15 K	921.7	48.54
323.15 K	918.4	39.48
328.15 K	915	32.49
333.15 K	911.6	27.02
338.15 K	908.2	22.69
343.15 K	904.8	19.23
348.15 K	901.4	16.45
353.15 K	898	14.16
358.15 K	894.6	12.28
363.15 K	891.2	10.71
